Test results reported in patent US10071092B2, “Polymorphic forms of vortioxetine and its pharmaceutically acceptable salts” (ALEMBIC PHARMACEUTICALS LIMITED, priority 2014, dated 2018).
Where a name gives a salt, the structure may show the parent alone.

Assays:
[1] = Moisture content of the solid; assay type: physicochemical
Method: Thermo gravimetric analysis (TGA) used for estimation of solvent/water content of dried material is performed using a TA-instruments TGA-Q500 about 10 mg sample is heated 10°/min in an open pan under nitrogen flow.
Vortioxetine Adipate (30.0 g) and dichloromethane (450 ml) were charged in round bottom flask stirred it for 5 mins. Solution of NaOH (8.1 g in 300 ml water) and solution of NaCl (7.5 g in 75 ml water) were added into above resulting solution and stirred it till clear solution was observed. Organic layer was separated out. HBr in acetic acid (18 g) was added into organic layer and stirred it for 30 mins. Acetic acid (150 ml) was added into reaction mixture. Dichloromethane was distilled out atmospherically from reaction mixture. Acetic acid (200 ml) and water (50 ml) were added into the reaction mixture. Water (1250 ml) was taken into another round bottom flask at 30±5° C. and cooled to 7±3° C. Reaction mixture was added into water containing round bottom flask within 15-30 minutes at 7±3° C. and after addition, reaction mixture's temperature allowed to come to 20±2° C. Reaction mixture was stirred for 30 minutes at 20±2° C. Reaction mixture was filtered and washed it with water (50 ml). Solid was dried to get Vortioxetine Hydrobromide (Form Ad) under vacuum for 6-8 hrs at 45±3° C. (Moisture content of solid is less than 1.0% w/w) […]

[2] = Polymorphic stability on exposure to moisture; assay type: physicochemical
Method: Vortioxetine Adipate (30.0 g) and dichloromethane (450 ml) were charged in round bottom flask stirred it for 5 mins. Solution of NaOH (8.1 g in 300 ml water) and solution of NaCl (7.5 g in 75 ml water) were added into above resulting solution and stirred it till clear solution was observed. Organic layer was separated out. HBr in acetic acid (18 g) was added into organic layer and stirred it for 30 mins. Acetic acid (150 ml) was added into reaction mixture. Dichloromethane was distilled out atmospherically from reaction mixture. Acetic acid (200 ml) and water (50 ml) were added into the reaction mixture. Water (1250 ml) was taken into another round bottom flask at 30±5° C. and cooled to 7±3° C. Reaction mixture was added into water containing round bottom flask within 15-30 minutes at 7±3° C. and after addition, reaction mixture's temperature allowed to come to 20±2° C. Reaction mixture was stirred for 30 minutes at 20±2° C. Reaction mixture was filtered and washed it with water (50 ml). Solid was dried to get Vortioxetine Hydrobromide (Form Ad) under vacuum for 6-8 hrs at 45±3° C. (Moisture content of Vortioxetine Hydrobromide (Form Ad) is less than 1.0% w/w). Vortioxetine Hydrobromide (Form Ad) was exposed at 40% RH and 25° C. for 2 hours to get Vortioxetine Hydrobromide (Form A). (Moisture content of Vortioxetine Hydrobromide (Form A) is between 4.2-4.8% w/w)

For `Cc1ccc(Sc2ccccc2N2CCNCC2)c(C)c1` [Vortioxetine Hydrobromide (Form Ad), Vortioxetine Hydrobromide], the Moisture content ([1]; solid dried under vacuum for 6-8 hrs at 45±3° C.) was “less than 1.0 % w/w” and the “Form change when exposed to moisture” value [2] was “converts into form A”.
With `Cc1ccc(Sc2ccccc2N2CCNCC2)c(C)c1` [Vortioxetine Hydrobromide (Form A), Vortioxetine Hydrobromide] the Moisture content ([1]; after Form Ad was exposed at 40% RH and 25° C. for 2 hours) was 4.2-4.8 % w/w.
